system: HCV 1b-Con1 replicon; test: HCV 1b-Con1 replicon assay in the presence of 5% FBS; type: cell-based; conditions: Hepatitis C virus

COC(=O)N[C@H](C(=O)N1CCC[C@H]1c1nc2cc([C@@H]3CC[C@@H](c4ccc5[nH]c([C@@H]6CCCN6C(=O)[C@@H](NC(=O)OC)[C@@H](C)OC)nc5c4)N3c3ccc(C4CC4)cc3)ccc2[nH]1)[C@@H](C)OC [Example 4.14, methyl {(2S,3R)-1-[(2S)-2-{5-[(2S,55)-1-(4-cyclopropylphenyl)-5-(2-{(2S)-1-[N-(methoxycarbonyl)-O-methyl-L-threonyl]pyrrolidin-2-yl}-1H-benzimidazol-5-yl)pyrrolidin-2-yl]-1H-benzimidazol-2-yl}pyrrolidin-1-yl]-3-methoxy-1-oxobutan-2-yl}carbamate] and COC(=O)N[C@H](C(=O)N1CCC[C@H]1c1nc2cc([C@H]3CC[C@H](c4ccc5[nH]c([C@@H]6CCCN6C(=O)[C@@H](NC(=O)OC)C(C)C)nc5c4)N3c3ccc(OCC4COCO4)cc3)ccc2[nH]1)C(C)C (stereo partly drawn) [Example 2.4, methyl {(2S)-1-[(2S)-2-{5-[(2R,5R)-1-[4-(1,3-dioxolan-4-ylmethoxy)phenyl]-5-{2-[(2S)-1-{(2S)-2-[(methoxycarbonyl)amino]-3-methylbutanoyl}pyrrolidin-2-yl]-1H-benzimidazol-5-yl}pyrrolidin-2-yl]-1H-benzimidazol-2-yl}pyrrolidin-1-yl]-3-methyl-1-oxobutan-2-yl}carbamate] cannot be ordered by EC50: under 0.1 nM for the first, under 0.1 nM for the second.

COC(=O)N[C@H](C(=O)N1CCC[C@H]1c1nc2cc([C@H]3CC[C@H](c4cc5nc([C@@H]6CCCN6C(=O)[C@@H](NC(=O)OC)C(C)C)[nH]c5cc4F)N3c3cc(F)c(N4CCC(C(F)(c5ccccc5)c5ccccc5)CC4)c(F)c3)c(F)cc2[nH]1)C(C)C [Example 4.37, methyl {(2S)-1-[(2S)-2-{5-[(2R,5R)-1-(3,5-difluoro-4-{4-[fluoro(diphenyl)methyl]piperidin-1-yl}phenyl)-5-{6-fluoro-2-[(2S)-1-{(2S)-2-[(methoxycarbonyl)amino]-3-methylbutanoyl}pyrrolidin-2-yl]-1H-benzimidazol-5-yl}pyrrolidin-2-yl]-6-fluoro-1H-benzimidazol-2-yl}pyrrolidin-1-yl]-3-methyl-1-oxobutan-2-yl}carbamate] and COC(=O)N[C@H](C(=O)N1CCC[C@H]1c1nc2cc([C@H]3CC[C@H](c4cc5nc([C@@H]6CCCN6C(=O)[C@@H](NC(=O)OC)C(C)C)[nH]c5cc4F)N3c3cc(F)c(N4CCC(CCCc5ccccc5)CC4)c(F)c3)c(F)cc2[nH]1)C(C)C [Example 4.26, methyl {(2S)-1-[(2S)-2-{5-[(2R,5R)-1-{3,5-difluoro-4-[4-(3-phenylpropyl)piperidin-1-yl]phenyl}-5-{6-fluoro-2-[(2S)-1-{(2S)-2-[(methoxycarbonyl)amino]-3-methylbutanoyl}pyrrolidin-2-yl]-1H-benzimidazol-5-yl}pyrrolidin-2-yl]-6-fluoro-1H-benzimidazol-2-yl}pyrrolidin-1-yl]-3-methyl-1-oxobutan-2-yl}carbamate] cannot be ordered by EC50: under 0.1 nM for the first, under 0.1 nM for the second.

COC(=O)N[C@H](C(=O)N1CCC[C@H]1c1nc2cc([C@H]3CC[C@H](c4ccc5[nH]c([C@@H]6CCCN6C(=O)[C@@H](NC(=O)OC)C6CCCCC6)nc5c4)N3c3cc(F)c(N4CCC(c5ccccc5)CC4)c(F)c3)ccc2[nH]1)C1CCCCC1 [Example 3.22, dimethyl ({(2R,5R)-1-[3,5-difluoro-4-(4-phenylpiperidin-1-yl)phenyl]pyrrolidine-2,5-diyl}bis{1H-benzimidazole-5,2-diyl(2S)pyrrolidine-2,1-diyl [(1S)-1-cyclohexyl-2-oxoethane-2,1-diyl]})biscarbamate] and COC(=O)N[C@H](C(=O)N1CCC[C@H]1c1nc2cc([C@H]3CC[C@H](c4ccc5nc([C@@H]6CCCN6C(=O)[C@@H](NC(=O)OC)C(C)C)[nH]c5c4)N3c3cc(F)c(N4CCC(c5ccccc5)C4)c(F)c3)ccc2[nH]1)C(C)C (stereo partly drawn) [Example 4.33, methyl {(2S)-1-[(2S)-2-{5-[(2R,5R)-1-[3,5-difluoro-4-(3-phenylpyrrolidin-1-yl)phenyl]-5-{2-[(2S)-1-{(2S)-2-[(methoxycarbonyl)amino]-3-methylbutanoyl}pyrrolidin-2-yl]-1H-benzimidazol-6-yl}pyrrolidin-2-yl]-1H-benzimidazol-2-yl}pyrrolidin-1-yl]-3-methyl-1-oxobutan-2-yl}carbamate] cannot be ordered by EC50: under 0.1 nM for the first, under 0.1 nM for the second.

COC(=O)N[C@H](C(=O)N1CCC[C@H]1C(=O)Nc1ccc(C2CC[C@@H](c3ccc(NC(=O)[C@@H]4CCCN4C(=O)[C@@H](NC(=O)OC)C(C)C)cc3)N2c2cc(F)c(N3CCC(c4ccccc4)CC3)c(F)c2)cc1)C(C)C (stereo partly drawn) [Example 8, dimethyl ({(2S)-1-[3,5-difluoro-4-(4-phenylpiperidin-1-yl)phenyl]pyrrolidine-2,5-diyl}bis{4,1-phenylenecarbamoyl(2S)pyrrolidine-2,1-diyl[(2S)-3-methyl-1-oxobutane-1,2-diyl]})biscarbamate] and COC(=O)N[C@H](C(=O)N1CCC[C@H]1c1nc(-c2ccc([C@H]3CC[C@H](c4ccc(-c5c[nH]c([C@@H]6CCCN6C(=O)[C@@H](NC(=O)OC)C(C)C)n5)cc4)N3c3cc(F)c(N4CCC(c5ccccc5)CC4)c(F)c3)cc2)c[nH]1)C(C)C [Example 9, methyl {(2S)-1-[(2S)-2-(4-{4-[(2R,5R)-1-[3,5-difluoro-4-(4-phenylpiperidin-1-yl)phenyl]-5-(4-{2-[(2S)-1-{(2S)-2-[(methoxycarbonyl)amino]-3-methylbutanoyl}pyrrolidin-2-yl]-1H-imidazol-4-yl}phenyl)pyrrolidin-2-yl]phenyl}-1H-imidazol-2-yl)pyrrolidin-1-yl]-3-methyl-1-oxobutan-2-yl}carbamate] cannot be ordered by EC50: under 0.1 nM for the first, under 0.1 nM for the second.

COC(=O)N[C@H](C(=O)N1CCC[C@H]1c1nc2cc([C@H]3CC[C@H](c4cc5nc([C@@H]6CCCN6C(=O)[C@@H](NC(=O)OC)C(C)C)[nH]c5cc4F)N3c3cc(F)c(N4CCC5(CCCCC5)CC4)c(F)c3)c(F)cc2[nH]1)C(C)C [Example 4.53, methyl {(2S)-1-[(2S)-2-{5-[(2R,5R)-1-[4-(3-azaspiro[5.5]undec-3-yl)-3,5-difluorophenyl]-5-{6-fluoro-2-[(2S)-1-{(2S)-2-[(methoxycarbonyl)amino]-3-methylbutanoyl}pyrrolidin-2-yl]-1H-benzimidazol-5-yl}pyrrolidin-2-yl]-6-fluoro-1H-benzimidazol-2-yl}pyrrolidin-1-yl]-3-methyl-1-oxobutan-2-yl}carbamate] and COC(=O)N[C@H](C(=O)N1CCC[C@H]1c1nc2cc([C@H]3CC[C@H](c4ccc5[nH]c([C@@H]6CCCN6C(=O)[C@@H](NC(=O)OC)C(C)C)nc5c4)N3c3cc(F)c(N4CCC5(CC4)OCCO5)c(F)c3)ccc2[nH]1)C(C)C [Example 5.14] cannot be ordered by EC50: under 0.1 nM for the first, under 0.1 nM for the second.

First: COC(=O)N[C@H](C(=O)N1C[C@@H](F)C[C@H]1c1nc2cc([C@H]3CC[C@H](c4ccc5[nH]c([C@@H]6C[C@H](F)CN6C(=O)[C@@H](NC(=O)OC)C(C)C)nc5c4)N3c3ccc(F)cc3)ccc2[nH]1)C(C)C [Example 3.9, methyl {(2S)-1-[(2S,4S)-4-fluoro-2-{5-[(2R,5R)-5-{2-[(2S,4S)-4-fluoro-1-{(2S)-2-[(methoxycarbonyl)amino]-3-methylbutanoyl}pyrrolidin-2-yl]-1H-benzimidazol-5-yl}-1-(4-fluorophenyl)pyrrolidin-2-yl]-1H-benzimidazol-2-yl}pyrrolidin-1-yl]-3-methyl-1-oxobutan-2-yl}carbamate]
Second: C=C1C[C@@H](c2nc3cc([C@H]4CC[C@H](c5ccc6[nH]c([C@@H]7CC(=C)CN7C(=O)[C@@H](NC(=O)OC)C(C)C)nc6c5)N4c4ccc(C(C)(C)C)cc4)ccc3[nH]2)N(C(=O)[C@@H](NC(=O)OC)C(C)C)C1 [Example 3.26, methyl {(2S)-1-[(2S)-2-{5-[(2R,5R)-1-(4-tert-butylphenyl)-5-{2-[(2S)-1-{(2S)-2-[(methoxycarbonyl)amino]-3-methylbutanoyl}-4-methylidenepyrrolidin-2-yl]-1H-benzimidazol-5-yl}pyrrolidin-2-yl]-1H-benzimidazol-2-yl}-4-methylidenepyrrolidin-1-yl]-3-methyl-1-oxobutan-2-yl}carbamate]
The EC50 of the first is higher: 0.1 to 1 nM for the first, under 0.1 nM for the second. The second is the more potent here.

COC(=O)N[C@H](C(=O)N1CCC[C@H]1c1nc2cc([C@H]3CC[C@H](c4ccc5[nH]c([C@@H]6CCCN6C(=O)[C@@H](NC(=O)OC)C(C)C)nc5c4)N3c3ccc(Oc4ccccc4)cc3)ccc2[nH]1)C(C)C [Example 1.1, methyl {(2S)-1-[(2S)-2-{5-[(2R,5R)-5-{2-[(2S)-1-{(2S)-2-[(methoxycarbonyl)amino]-3-methylbutanoyl}pyrrolidin-2-yl]-1H-benzimidazol-5-yl}-1-(4-phenoxyphenyl)pyrrolidin-2-yl]-1H-benzimidazol-2-yl}pyrrolidin-1-yl]-3-methyl-1-oxobutan-2-yl}carbamate] and COC(=O)N[C@H](C(=O)N1CCC[C@H]1c1nc2ccc([C@H]3CC[C@H](c4ccc5nc([C@@H]6CCCN6C(=O)[C@@H](NC(=O)OC)C(C)C)[nH]c5c4)N3c3cc(F)c(N4CCC(c5ccccn5)CC4)c(F)c3)cc2[nH]1)C(C)C [Example 2.13, methyl {(2S)-1-[(2S)-2-{5-[(2R,5R)-1-{3,5-difluoro-4-[4-(pyridin-2-yl)piperidin-1-yl]phenyl}-5-{2-[(2S)-1-{(2S)-2-[(methoxycarbonyl)amino]-3-methylbutanoyl}pyrrolidin-2-yl]-1H-benzimidazol-5-yl}pyrrolidin-2-yl]-1H-benzimidazol-2-yl}pyrrolidin-1-yl]-3-methyl-1-oxobutan-2-yl}carbamate] cannot be ordered by EC50: under 0.1 nM for the first, under 0.1 nM for the second.

Compound COC(=O)N[C@H](C(=O)N1[C@H](c2nc3cc([C@H]4CC[C@H](c5cc6nc([C@@H]7C[C@@H]8CCC[C@@H]8N7C(=O)[C@@H](NC(=O)OC)C7CCOCC7)[nH]c6cc5F)N4c4cc(F)c(N5CCCCC5)c(F)c4)c(F)cc3[nH]2)C[C@@H]2CCC[C@@H]21)C1CCOCC1 [Example 3.41, dimethyl ({(2R,5R)-1-[3,5-difluoro-4-(piperidin-1-yl)phenyl]pyrrolidine-2,5-diyl}bis{(6-fluoro-1H-benzimidazole-5,2-diyl)(2S,3aS,6aS)hexahydrocyclopenta[b]pyrrole-2,1(2H)-diyl[(1S)-2-oxo-1-(tetrahydro-2H-pyran-4-yl)ethane-2,1-diyl]})biscarbamate] has an EC50 of under 0.1 nM.

— patent US20120220562A1, “Anti-Viral Compounds” (ABBOTT LABAORATORIES, priority 2011, published 2012)
